Experimental data published in publication PMC8905313, “Overexpression of ABCB1 Associated With the Resistance to the KRAS-G12C Specific Inhibitor ARS-1620 in Cancer Cells” (Frontiers in Pharmacology, 2022).
pEC50: −log10 of the molar value.

Target: T1, ABCB1 (Homo sapiens, UniProt P08183)
T1 construct: ABCB1 membrane vesicles
Assay: vanadate-sensitive ATPase stimulation in ABCB1 membrane vesicles; supported by HPLC efflux and [3H]-paclitaxel accumulation in KB-C2 cells
Assay type: biochemical

T1 sequence (P08183 whole entry): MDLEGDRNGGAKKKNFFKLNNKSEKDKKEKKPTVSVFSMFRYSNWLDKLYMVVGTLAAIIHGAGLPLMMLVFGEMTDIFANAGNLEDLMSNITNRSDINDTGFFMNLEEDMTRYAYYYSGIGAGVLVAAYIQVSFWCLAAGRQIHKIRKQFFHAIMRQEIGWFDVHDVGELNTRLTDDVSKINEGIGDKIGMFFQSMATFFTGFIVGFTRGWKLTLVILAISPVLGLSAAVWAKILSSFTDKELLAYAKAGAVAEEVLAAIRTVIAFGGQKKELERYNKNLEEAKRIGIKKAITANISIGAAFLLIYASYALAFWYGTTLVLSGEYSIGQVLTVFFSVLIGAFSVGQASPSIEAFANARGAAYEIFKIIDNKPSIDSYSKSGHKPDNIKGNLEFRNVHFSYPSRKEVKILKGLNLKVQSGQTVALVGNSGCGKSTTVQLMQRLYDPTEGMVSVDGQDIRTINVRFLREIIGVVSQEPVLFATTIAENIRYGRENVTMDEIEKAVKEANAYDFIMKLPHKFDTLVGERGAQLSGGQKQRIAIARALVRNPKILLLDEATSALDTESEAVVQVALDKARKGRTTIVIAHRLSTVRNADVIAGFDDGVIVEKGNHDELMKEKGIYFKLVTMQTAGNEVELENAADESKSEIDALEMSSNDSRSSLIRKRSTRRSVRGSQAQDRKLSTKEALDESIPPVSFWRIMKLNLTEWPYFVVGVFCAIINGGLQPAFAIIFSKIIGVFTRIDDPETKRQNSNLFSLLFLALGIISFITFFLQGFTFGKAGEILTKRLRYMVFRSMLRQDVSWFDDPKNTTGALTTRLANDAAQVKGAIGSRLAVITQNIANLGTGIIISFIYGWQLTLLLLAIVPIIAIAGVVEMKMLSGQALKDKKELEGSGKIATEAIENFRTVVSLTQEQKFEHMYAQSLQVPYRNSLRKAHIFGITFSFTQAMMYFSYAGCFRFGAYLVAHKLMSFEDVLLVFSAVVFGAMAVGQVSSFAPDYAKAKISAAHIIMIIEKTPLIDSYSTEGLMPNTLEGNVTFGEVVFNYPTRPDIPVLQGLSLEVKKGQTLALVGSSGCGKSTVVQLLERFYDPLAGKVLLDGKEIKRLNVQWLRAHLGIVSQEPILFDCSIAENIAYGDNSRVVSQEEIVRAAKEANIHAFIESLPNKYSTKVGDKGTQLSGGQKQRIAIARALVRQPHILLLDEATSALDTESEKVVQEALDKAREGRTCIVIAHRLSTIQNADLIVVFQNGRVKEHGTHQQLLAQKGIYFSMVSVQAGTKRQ

C=CC(=O)N1CCN(c2ncnc3c(F)c(-c4c(O)cccc4F)c(Cl)cc23)CC1 [ARS-1620]
pEC50: 4.83
